{
  "source": "ChEMBL document CHEMBL5291721",
  "about": "“A preclinical secondary pharmacology resource illuminates target-adverse drug reaction associations of marketed drugs” (Nat Commun, 2023); also: assay procedure not described here",
  "key": {"[1]": {"biological_target": "T1, Retinoic acid receptor alpha (Homo sapiens, UniProt P10276)", "T1 sequence (P10276 whole entry)": "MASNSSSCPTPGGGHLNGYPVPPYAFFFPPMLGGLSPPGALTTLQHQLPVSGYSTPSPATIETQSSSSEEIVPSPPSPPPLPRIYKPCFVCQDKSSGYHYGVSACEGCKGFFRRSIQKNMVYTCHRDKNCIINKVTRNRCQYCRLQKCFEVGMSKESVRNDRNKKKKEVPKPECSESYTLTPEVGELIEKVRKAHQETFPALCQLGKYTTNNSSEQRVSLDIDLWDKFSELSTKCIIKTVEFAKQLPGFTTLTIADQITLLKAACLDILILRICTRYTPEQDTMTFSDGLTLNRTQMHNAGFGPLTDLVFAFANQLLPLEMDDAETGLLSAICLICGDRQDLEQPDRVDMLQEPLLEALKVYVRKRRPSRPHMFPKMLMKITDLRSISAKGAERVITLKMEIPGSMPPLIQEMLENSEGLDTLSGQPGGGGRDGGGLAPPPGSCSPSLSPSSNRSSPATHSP", "type": "functional, cell-based"}, "[2]": {"biological_target": "T2, Retinoic acid receptor beta (Homo sapiens, UniProt P10826)", "T2 sequence (P10826 whole entry)": "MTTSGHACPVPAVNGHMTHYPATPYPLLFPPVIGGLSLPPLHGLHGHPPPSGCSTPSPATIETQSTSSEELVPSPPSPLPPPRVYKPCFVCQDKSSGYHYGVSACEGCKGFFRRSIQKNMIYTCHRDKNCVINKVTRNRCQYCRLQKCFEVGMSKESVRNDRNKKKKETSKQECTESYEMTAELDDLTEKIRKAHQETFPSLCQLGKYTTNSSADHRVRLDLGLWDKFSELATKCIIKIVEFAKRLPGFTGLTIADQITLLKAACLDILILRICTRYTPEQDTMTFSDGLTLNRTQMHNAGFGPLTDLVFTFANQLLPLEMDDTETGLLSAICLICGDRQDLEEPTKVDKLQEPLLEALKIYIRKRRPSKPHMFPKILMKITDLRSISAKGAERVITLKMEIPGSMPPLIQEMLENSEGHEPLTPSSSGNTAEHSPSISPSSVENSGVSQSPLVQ", "type": "functional, cell-based"}, "[3]": {"biological_target": "T2, Retinoic acid receptor beta", "type": "functional, cell-based", "remark": "listed apart in the source"}, "[4]": {"biological_target": "T3, Retinoic acid receptor gamma (Homo sapiens, UniProt P13631)", "T3 sequence (P13631 whole entry)": "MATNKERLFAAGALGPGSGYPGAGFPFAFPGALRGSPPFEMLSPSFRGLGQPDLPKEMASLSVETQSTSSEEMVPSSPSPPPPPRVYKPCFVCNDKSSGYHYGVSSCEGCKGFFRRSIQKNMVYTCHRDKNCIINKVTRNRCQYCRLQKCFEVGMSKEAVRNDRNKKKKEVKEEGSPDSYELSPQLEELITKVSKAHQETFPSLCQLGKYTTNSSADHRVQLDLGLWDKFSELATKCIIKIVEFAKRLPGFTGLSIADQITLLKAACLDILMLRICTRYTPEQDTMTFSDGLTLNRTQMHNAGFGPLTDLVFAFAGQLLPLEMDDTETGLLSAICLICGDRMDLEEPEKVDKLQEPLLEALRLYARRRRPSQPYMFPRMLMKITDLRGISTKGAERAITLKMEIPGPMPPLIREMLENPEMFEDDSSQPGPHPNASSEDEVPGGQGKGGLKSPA", "type": "functional, cell-based"}, "[5]": {"biological_target": "T4, Type-1 angiotensin II receptor (Homo sapiens, UniProt P30556)", "T4 sequence (P30556 whole entry)": "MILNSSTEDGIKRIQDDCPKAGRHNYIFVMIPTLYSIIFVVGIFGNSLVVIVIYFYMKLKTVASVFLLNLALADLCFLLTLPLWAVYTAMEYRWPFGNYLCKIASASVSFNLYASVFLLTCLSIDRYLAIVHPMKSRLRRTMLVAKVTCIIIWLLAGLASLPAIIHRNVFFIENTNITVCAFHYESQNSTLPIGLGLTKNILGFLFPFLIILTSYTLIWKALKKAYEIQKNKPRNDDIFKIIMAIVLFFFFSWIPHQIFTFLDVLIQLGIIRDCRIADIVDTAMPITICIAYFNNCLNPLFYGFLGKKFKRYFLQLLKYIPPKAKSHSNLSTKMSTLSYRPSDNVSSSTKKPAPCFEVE"}, "[6]": {"biological_target": "Synaptic vesicular amine transporter (Rattus norvegicus, UniProt Q01827)", "sequence (Q01827 whole entry)": "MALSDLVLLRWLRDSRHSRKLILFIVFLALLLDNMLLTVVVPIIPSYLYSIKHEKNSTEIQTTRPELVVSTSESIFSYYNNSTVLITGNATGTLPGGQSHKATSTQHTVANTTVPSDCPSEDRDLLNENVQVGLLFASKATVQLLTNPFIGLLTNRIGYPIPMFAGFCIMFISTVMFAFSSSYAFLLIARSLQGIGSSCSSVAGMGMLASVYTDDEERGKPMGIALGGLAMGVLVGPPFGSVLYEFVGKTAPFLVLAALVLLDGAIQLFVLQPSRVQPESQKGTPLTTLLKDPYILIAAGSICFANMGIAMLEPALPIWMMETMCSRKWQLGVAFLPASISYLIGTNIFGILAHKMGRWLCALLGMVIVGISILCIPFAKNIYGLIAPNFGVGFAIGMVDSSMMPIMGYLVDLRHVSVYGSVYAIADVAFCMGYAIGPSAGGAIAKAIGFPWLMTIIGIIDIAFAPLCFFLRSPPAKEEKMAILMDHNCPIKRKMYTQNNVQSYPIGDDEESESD", "type": "functional"}, "D(1A) dopamine receptor [7]": {"biological_target": "T5, D(1A) dopamine receptor (Homo sapiens, UniProt P21728)", "T5 sequence (P21728 whole entry)": "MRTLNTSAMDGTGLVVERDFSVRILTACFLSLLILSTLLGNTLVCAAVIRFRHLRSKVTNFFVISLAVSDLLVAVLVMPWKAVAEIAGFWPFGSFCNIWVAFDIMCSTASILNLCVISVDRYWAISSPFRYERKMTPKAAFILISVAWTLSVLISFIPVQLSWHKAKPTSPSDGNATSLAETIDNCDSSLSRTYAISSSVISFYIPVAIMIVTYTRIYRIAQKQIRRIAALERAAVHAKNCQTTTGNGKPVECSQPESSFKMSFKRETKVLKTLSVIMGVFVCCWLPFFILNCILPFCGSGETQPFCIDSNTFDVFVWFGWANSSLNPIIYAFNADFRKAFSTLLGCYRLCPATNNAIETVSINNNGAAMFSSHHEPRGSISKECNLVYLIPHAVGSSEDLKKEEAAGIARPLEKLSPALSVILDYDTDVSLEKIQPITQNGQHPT"}, "[8]": {"biological_target": "T6, Alpha-1A adrenergic receptor (Homo sapiens, UniProt P35348)", "T6 sequence (P35348 whole entry)": "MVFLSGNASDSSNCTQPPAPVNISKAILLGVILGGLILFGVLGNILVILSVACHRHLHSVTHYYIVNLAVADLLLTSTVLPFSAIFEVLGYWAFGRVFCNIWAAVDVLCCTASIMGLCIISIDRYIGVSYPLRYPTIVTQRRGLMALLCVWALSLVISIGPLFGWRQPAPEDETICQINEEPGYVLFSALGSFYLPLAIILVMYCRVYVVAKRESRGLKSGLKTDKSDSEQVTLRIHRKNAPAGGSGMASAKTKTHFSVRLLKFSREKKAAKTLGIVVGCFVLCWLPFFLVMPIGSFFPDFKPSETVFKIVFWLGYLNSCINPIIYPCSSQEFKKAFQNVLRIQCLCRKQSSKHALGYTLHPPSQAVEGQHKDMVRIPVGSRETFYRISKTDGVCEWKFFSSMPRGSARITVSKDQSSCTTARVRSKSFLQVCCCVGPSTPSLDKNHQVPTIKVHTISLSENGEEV", "type": "functional, cell-based"}, "Adenosine receptor A1": {"biological_target": "T7, Adenosine receptor A1 (Homo sapiens, UniProt P30542)", "T7 sequence (P30542 whole entry)": "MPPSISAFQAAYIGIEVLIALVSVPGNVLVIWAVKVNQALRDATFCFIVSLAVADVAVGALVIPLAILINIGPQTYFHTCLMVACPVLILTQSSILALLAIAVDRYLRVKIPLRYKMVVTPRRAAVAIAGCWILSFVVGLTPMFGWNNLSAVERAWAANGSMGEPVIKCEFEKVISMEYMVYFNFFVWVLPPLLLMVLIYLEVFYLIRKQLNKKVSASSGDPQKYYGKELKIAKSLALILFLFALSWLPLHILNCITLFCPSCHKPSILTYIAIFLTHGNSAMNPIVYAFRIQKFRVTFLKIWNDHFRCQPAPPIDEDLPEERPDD"}, "[9]": {"biological_target": "T6, Alpha-1A adrenergic receptor"}, "D(1A) dopamine receptor [10]": {"biological_target": "T5, D(1A) dopamine receptor", "remark": "listed apart in the source"}},
  "data": [
    {"compound": "CC(C)c1c(C(=O)Nc2ccccc2)c(-c2ccccc2)c(-c2ccc(F)cc2)n1CC[C@@H](O)C[C@@H](O)CC(=O)O", "note": "[ATORVASTATIN]", "values": [
      {"measurement": "AC50", "setting": "[1]", "result": "> 30", "unit": "µM"},
      {"measurement": "AC50", "setting": "[2]", "result": "> 30", "unit": "µM"},
      {"measurement": "AC50", "setting": "[3]", "result": "> 30", "unit": "µM"},
      {"measurement": "AC50", "setting": "[4]", "result": "> 30", "unit": "µM"}
    ]},
    {"compound": "Cc1c(O)c(=O)ccn1C", "note": "[DEFERIPRONE]", "values": [
      {"measurement": "AC50", "setting": "[5]", "result": "> 100", "unit": "µM"}
    ]},
    {"compound": "CCNC(C)Cc1cccc(C(F)(F)F)c1", "note": "(stereo unspecified) [FENFLURAMINE]", "values": [
      {"measurement": "AC50", "setting": "[6]", "result": 3.71, "unit": "µM"}
    ]},
    {"compound": "CCN1CCC[C@H]1CNC(=O)c1cc(S(N)(=O)=O)ccc1OC", "note": "[LEVOSULPIRIDE]", "values": [
      {"measurement": "AC50", "setting": "D(1A) dopamine receptor [7]", "result": 12, "unit": "µM"}
    ]},
    {"compound": "Nc1nc2ccc(OC(F)(F)F)cc2s1", "note": "[RILUZOLE]", "values": [
      {"measurement": "AC50", "setting": "[8]", "result": "> 30", "unit": "µM"}
    ]},
    {"compound": "BIVALIRUDIN", "values": [
      {"measurement": "AC50", "setting": "Adenosine receptor A1", "result": "> 30", "unit": "µM"},
      {"measurement": "AC50", "setting": "[9]", "result": "> 30", "unit": "µM"},
      {"measurement": "AC50", "setting": "D(1A) dopamine receptor [10]", "result": "> 30", "unit": "µM"}
    ]}
  ]
}
